From patent US8288380B2, “Thiophenediamine derivative having urea structure” (Santen Pharmaceutical Co., Ltd., priority 2008, dated 2012)

Experiments:
[1] = system: HDAC (HeLa nuclear extract); assay: Test for evaluation of HDAC inhibitory activity (HDAC Fluorimetric Assay/Drug Discovery Kit, Biomol); assay type: biochemical; settings: final concentration of the test compound 30 μM, values more than 100% shown as 100%
Description: Using HDAC Fluorimetric Assay/Drug Discovery Kit (manufactured by Biomol), HDAC inhibitory activity of the present compounds was measured according to the protocol included with the kit. The kit contains Buffer, HeLa nuclear extract (includes HDAC), Substrate, Developer and Trichostatin A HDAC inhibitor).
A test compound was dissolved in dimethyl sulfoxide (hereinafter referred to as “DMSO”), whereby a 2 mg/mL solution was prepared. Then, the resulting solution was diluted with Buffer containing 5% DMSO, whereby a 150 μM test compound solution was prepared.
1) To a 384-well culture plate, the test compound solution was added in an amount of 2 μL per well.
2) HeLa nuclear extract was diluted 30-fold with Buffer. The resulting solution was added in an amount of 3 μL per well, and then incubation was performed at 37° C. for 2 hours.
3) Substrate was diluted 500-fold with Buffer. The resulting solution was added in an amount of 5 μL per well (the final concentration of the test compound was 30 μM), and then incubation was performed at 37° C. for 10 minutes.
4) Developer was diluted 20-fold with Buffer and Trichostatin A (2 μM) was added to it. The resulting solution was added in an amount of 10 μL per well, and then incubation was performed at room temperature for 15 minutes.
5) The fluorescence intensity of each well was measured using multilabel counter ARVO (manufactured by Wallac) with excitation at 360 nm and emission at 460 nm.
6) A control data was obtained from the same experiment except that Buffer containing 5% DMSO was added instead of the test compound solution as the above-mentioned procedure from 1) to 5).
7) A blank data was obtained from the same experiment except that Buffer containing 5% DMSO was added instead of the test compound solution and that Buffer was added instead of Hela nuclear extract as the above-mentioned procedure from 1) to 5).
Enzyme inhibitory rate (%) was calculated using the following equation. (Enzyme Inhibitory Rate(%))=100×[1−{(Fluorescence Intensity of Test Compound Solution)−(Florescence Intensity of Blank)}/{(Florescence Intensity of Control)−(Florescence Intensity of Blank)}] (Test Results)

[2] = system: human trabecular meshwork cell line (TM-1 cells); assay: Test for evaluation of effect of morphological change on trabecular meshwork cells (cell shape index, CSI); assay type: cell-based; settings: final concentration 10 μM, 24 hours incubation, Control 0.694, lower CSI indicates greater morphological changes
Description: Further, as a result of studying an effect morphological change of the present compound on trabecular meshwork cells, i.e., an effect of morphological change of the present compound on trabecular meshwork cells in an evaluation system using the cell shape index (hereinafter referred to as “CSI”) reported in The Journal of Clinical Investigation, 103, 1141-1150 (1999) as an index, it was found the present compound has an excellent effect of morphological change on trabecular meshwork cells.
As a method for evaluating a cellular morphological change, an evaluation system using the cell shape index (hereinafter referred to as “CSI”) as an index has been reported in The Journal of Clinical Investigation, 103, 1141-1150 (1999). Therefore, according to the method described in the above document, an effect of morphological change of the present compounds on trabecular meshwork cells was evaluated.
A human trabecular meshwork cell line (hereinafter referred to as “TM-1 cells”) reported in Investigative Ophthalmology & Visual Science, 43, 151-161 (2002) was used.
Culture medium 1: A reagent was prepared by adding fetal bovine serum (10%), L-glutamine (2 mM), amphotericin B ([…]), and gentamicin (25 μg/mL) to Dulbecco's Modified Eagle Medium (hereinafter referred to as “D-MEM”).
Culture medium 2: A reagent was prepared by adding fetal bovine serum (3%), L-glutamine (2 mM), amphotericin B (2.5 μg/mL), and gentamicin (25 μg/mL) were added to D-MEM.
Cell staining liquid: A mixed liquid of Calcein-AM (16 μM) and Hoechst 33342 (40 μM) was prepared by diluting a Calcein-AM solution (cytoplasmic staining reagent, manufactured by Dojindo Laboratories) and a Hoechst 33342 solution (nuclear staining reagent, manufactured by Dojindo Laboratories) with D-MEM containing L-glutamine (2 mM), amphotericin B (2.5 μg/mL), and gentamicin (25 μg/mL).
TM-1 cells subcultured at 37° C. in a 8% carbon dioxide gas atmosphere were treated with a trypsin/EDTA solution (0.05% trypsin and 0.53 mM tetrasodium ethylenediaminetetraacetate) at 24 hours before performing a drug treatment mentioned below and seeded on a 96-well culture plate. The culture medium 1 was used for the subculture of the cells. The culture medium 2 was used for the cell culture after seeding the cells on the plate.
A test compound was dissolved in DMSO, whereby a 5 mM solution was prepared. Then, the resulting solution was diluted with the culture medium 2, whereby a 200 μM test compound solution was prepared.
It has been reported that Y-27632 which is a Rho kinase inhibitor induces a morphological change in trabecular meshwork cells in Investigative Ophthalmology & Visual Science, 42, 137-144 (2001). Therefore, Y-27632 (produced according to the method described in WO 90/05723) was used as a positive control, and dissolved in DMSO in the same manner as the test compound, whereby a 5 mM solution was prepared, and then, the resulting solution was diluted with the culture medium 2, whereby a 200 μM positive control compound solution was prepared.
1) To a 96-well culture plate, a solution of TM-1 cells adjusted to a cell density of […] was added in an amount of 95 μL (1.5×10^4 cells) per well.
2) Incubation was performed at 37° C. in a 8% carbon dioxide gas atmosphere for 24 hours.
3) The test compound solution or positive control compound solution was added in an amount of 5 μL per well (the final concentration of the test compound or positive control compound was 10 μM). As a control, the culture medium 2 containing DMSO (4%) was added in an amount of 5 μL per well.
4) Incubation was performed at 37° C. in a 8% carbon dioxide gas atmosphere for 24 hours.
5) The cell staining liquid was added in an amount of 10 μL per well.
6) Incubation was performed at 37° C. in a 8% carbon dioxide gas atmosphere for 1 hour to stain the cells.
7) A 37% formaldehyde solution was added in an amount of 10 μL per well.
8) Incubation was performed at room temperature for 1 hour to fix the cells. […]

[3] = system: male Japanese White rabbits; assay: Test for evaluation of intraocular pressure-lowering effect (intracameral administration); assay type: in vivo, rabbit; settings: intracameral administration of 20 μL of 1 mM liquid, at 9 hours after administering, versus vehicle control group
Description: Further, as a result of studying an effect of intraocular pressure reduction of the present compound through intracameral administration using male Japanese white rabbits in order to confirm an actual effect of intraocular pressure reduction of the present compound, it was confirmed that the present compound has an effect of intraocular pressure reduction. […]
One drop of 0.4% oxybuprocaine hydrochloride eye drop was instilled into both eyes of each male Japanese White rabbit to achieve local anesthesia, and thereafter, the intraocular pressure was measured using an applanation tonometer. […] After the lapse of a certain period of time from the administration of the test compound or vehicle, one drop of 0.4% oxybuprocaine hydrochloride eye drop was instilled into the administered eye to achieve local anesthesia, and thereafter, the intraocular pressure was measured using an applanation tonometer.
The intraocular pressure-lowering effect of each test compound was evaluated by calculating an intraocular pressure reduction rate. The intraocular pressure reduction rate (%) was calculated using the following equation. […]

Row | SMILES | Enzyme Inhibitory Rate (%) [1] | CSI [2] | Intraocular Pressure Reduction Rate (%) [3]
1 | CC(C)NC(=O)N(CCN(C)C)Cc1ccc(C(=O)Nc2cscc2N)nc1 [Compound No. 1-43, N-(4-Aminothiophen-3-yl)-5-[1-(2-dimethylaminoethyl)-3-isopropylureidomethyl]pyridine-2-carboxylic acid amide] | 100% | 0.522 | 7%
2 | CCCNC(=O)N(CCCCN1CCOCC1)Cc1ccc(C(=O)Nc2cscc2N)nc1 [Compound No. 1-82, N-(4-Aminothiophen-3-yl)-5-[1-[4-(morpholin-4-yl)butyl]-3-propylureidomethyl]pyridine-2-carboxylic acid amide] | 96% | 0.507 | 25%
